Like-named read-outs stand apart in the source and are kept apart here. A value given as a limit tells only on which side of the number the result lay.

The values that follow come from US20250034135A1, “ANTI-APOPTOTIC PROTEIN BCL-2 INHIBITOR, PHARMACEUTICAL COMPOSITION AND USES THEREOF” (HANGZHOU HEALZEN THERAPEUTICS CO., LTD., priority 2021, published 2025).

Assay [1] deals with BCL-XL (Homo sapiens (Human), UniProt Q07817). Description: BCL-XL enzyme molecular level activity test (HTRF, binding to BIM peptide). The note with it: binding of BCL-XL to BIM peptide, values in nM, read-out: BCL-XL inhibitory activity (IC50). The gist of the method: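 HTRF binding assay: His-tagged recombinant BCL-XL with biotin-BIM peptide and compound (2% DMSO), 1 h. Anti-His and streptavidin-XL665 detection reagents added, 4 h at room temperature. Excitation 320 nm; 665/615 nm ratio reflects binding, with no-protein background and no-compound full-binding controls.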
BCL-XL, sequence (Q07817 whole entry): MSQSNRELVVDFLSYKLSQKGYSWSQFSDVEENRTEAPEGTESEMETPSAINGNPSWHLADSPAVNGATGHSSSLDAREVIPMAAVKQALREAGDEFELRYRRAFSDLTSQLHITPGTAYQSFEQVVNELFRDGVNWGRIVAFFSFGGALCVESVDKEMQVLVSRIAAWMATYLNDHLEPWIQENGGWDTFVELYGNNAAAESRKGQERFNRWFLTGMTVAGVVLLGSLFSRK
A general note: In TR-FRET formats the signal depends on donor and acceptor labels being close together.

The target in assay [2] is BCL2 (D103Y) (Homo sapiens (Human), UniProt P10415, D103Y). The assay can be described thus: Molecular level activity test of BCL2 (D103Y) (HTRF, binding to Bim peptide). As to conditions: read-out: BCL-2 (D103Y) (nM) (inhibitory activity, IC50). Here is the method:
(§1) The detection of the binding ability between anti-apoptotic protein BCL2 (D103Y) and pro-apoptotic protein Bim was performed using Homogeneous Time-Resolved Fluorescence technology. The reaction of this method occurred in a white shallow 384-well plate, with a total reaction volume of 10 μL. Specifically, it included 2 μL of the compound to be tested (2% DMSO), 4 μL His-tagged recombinant protein, and 4 μL Biotin-tagged BIM protein peptide. After 1 hour of reaction, 5 μL of each Anti-His and streptavidin-tagged XL665 antibody diluents diluted with a detection buffer were added. After incubating at room temperature for 4 hours, the values were read using the Envision multifunctional microplate reader to detect the effect of the compound to be tested on the binding ability of BCL2 (D103Y) to BIM protein peptides.

For assay [3], the system named is RS4; 11 cells. The assay can be described thus: Tumor proliferation inhibitory activity test (MTS) on RS4; 11. The assay is classed as cell-based. As to conditions: Homo sapiens, RS4-11, 72 h, 3 days incubation. As to the method:
The cell proliferation inhibitory ability of the compounds on RS4; 11 was tested using the MTS method. MTS is a tetrazolium blue salt compound that can be reduced by various dehydrogenases in live cell mitochondria to their respective colored methylzan products. Its color depth is highly correlated with the number of live cells in certain sensitive cell lines within a certain range. RS4; 11, RS4; 11 (BCL-2-G101V) and MOLT-4 tumor cells were cultivated separately and collected, 180 μL of cell suspension was added to each well in a 96-well cell plate, 20 μL of DMSO with a final concentration of 0.2% was added to the control cell wells, 20 μL of gradient diluted compounds were added to cell wells, and the treated cells were incubated in a 5% CO2 incubator at 37° C. for 3 days. After the incubation was completed, the reaction solution was prepared according to the MTS reagent kit, 20 μL was added per well and incubated in a 5% CO2 incubator at 37° C. for 3-4 hours. The absorbance value at 490 nm was read using an enzyme-linked immunosorbent assay (ELISA) plate, and the absorbance value at 690 nm was used as the background value, with OD490 nm-OD690 nm as the final raw data. The formula for calculating the inhibition ratio of compounds was as follows: inhibition ratio=(ODDMSO−ODCompound)/(ODDMSO−ODblank)×100%.

The target in assay [4] is BCL2 (G101V) (Homo sapiens (Human), UniProt P10415, G101V). Description: Molecular level activity test of anti-apoptotic protein BCL2 (G101V) (HTRF, binding to Bim peptide). As to conditions: inhibition of BCL2 (G101V) binding to Bim peptide, read-out: BCL-2 (G101V). Here is the method:
as §1, with “BCL2 (G101V)” for “BCL2 (D103Y)”, “[…]” for “5 μL”

Assay [5] deals with BCL2 (Homo sapiens (Human), UniProt P10415). Description: Molecular level activity test of anti-apoptotic protein BCL2 (HTRF, binding to Bim peptide). The gist of the method: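 Signal comes from proximity of anti-His-labelled BCL2 and streptavidin-XL665-bound biotin-BIM peptide. Test compounds, added in 2% DMSO, were preincubated with protein and peptide for one hour; detection reagents then incubated four hours at room temperature before reading.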

[6] abbreviates: HTRF, binding of BCL2 to Bim peptide, read-out: BCL2 nM (inhibitory activity, IC50).

On to `CC(C)c1ccccc1[C@@H]1CN(Cc2ccc(CN(C)C)cc2)CCN1C1CC2(CCN(c3cc(Oc4cnc5[nH]ccc5c4)c(C(=O)NS(=O)(=O)c4ccc(NCC5(F)CCOCC5)c([N+](=O)[O-])c4)cc3F)CC2)C1` [compound 244, (R)-2-((1H-pyrrolo[2,3-b]pyrid-5-yl)oxy)-4-(2-(4-(4-((dimethylamino)methyl)benzyl)-2-(2-isopropylphenyl)piperazin-1-yl)-7-azaspiro[3.5]non-7-yl)-5-fluoro-N-((4-(((4-fluorotetrahydro-2H-pyran-4-yl)methyl)amino)-3-nitrophenyl)sulfonyl)benzamide], for which the IC50 in assay [1] was over 500 nM; in assay [2], under 10 nM; in assay [3] it was 0.0005 to 0.001 µM; in assay [4] it was under 0.01 µM; in assay [5] (setting [6]), under 0.01 µM.

For the compound `CC(C)c1ccccc1[C@@H]1CN(Cc2ccc(CN3CCCC3)cc2)CCN1C1CC2(CCN(c3cc(Oc4cnc5[nH]ccc5c4)c(C(=O)NS(=O)(=O)c4ccc(NCC5(F)CCOCC5)c([N+](=O)[O-])c4)cc3F)CC2)C1` [compound 245, (R)-2-((1H-pyrrolo[2,3-b]pyrid-5-yl)oxy)-5-fluoro-N-((4-(((4-fluorotetrahydro-2H-pyran-4-yl)methyl)amino)-3-nitrophenyl)sulfonyl)-4-(2-(2-(2-isopropylphenyl)-4-(4-(pyrrolidin-1-ylmethyl)benzyl)piperazin-1-yl)-7-azaspiro[3.5]non-7-yl)benzamide], the IC50 in assay [1] is over 500 nM; in assay [2], under 10 nM; in assay [3], 0.0005 to 0.001 µM; in assay [4], under 0.01 µM; in assay [5] (setting [6]), under 0.01 µM.

For the compound `CNCc1ccc(CN2CCN(C3CC4(CCN(c5cc(Oc6cnc7[nH]ccc7c6)c(C(=O)NS(=O)(=O)c6ccc(NCC7(F)CCOCC7)c([N+](=O)[O-])c6)cc5F)CC4)C3)[C@H](c3ccccc3C(C)C)C2)cc1OC` [compound 246, (R)-2-((1H-pyrrolo[2,3-b]pyrid-5-yl)oxy)-5-fluoro-N-((4-(((4-fluorotetrahydro-2H-pyran-4-yl)methyl)amino)-3-nitrophenyl)sulfonyl)-4-(2-(2-(2-isopropylphenyl)-4-(3-methoxy-4-((methylamino)methyl)benzyl)piperazin-1-yl)-7-azaspiro[3.5]non-7-yl)benzamide], the IC50 was over 500 nM in assay [1]; under 10 nM in assay [2]; 0.0005 to 0.001 µM in assay [3]; under 0.01 µM in assay [4]; under 0.01 µM in assay [5] (setting [6]).

`COc1cc(CN2CCN(C3CC4(CCN(c5cc(Oc6cnc7[nH]ccc7c6)c(C(=O)NS(=O)(=O)c6ccc(NCC7(F)CCOCC7)c([N+](=O)[O-])c6)cc5F)CC4)C3)[C@H](c3ccccc3C(C)C)C2)ccc1CN1CCCC1` [compound 248, (R)-2-((1H-pyrrolo[2,3-b]pyrid-5-yl)oxy)-5-fluoro-N-((4-(((4-fluorotetrahydro-2H-pyran-4-yl)methyl)amino)-3-nitrophenyl)sulfonyl)-4-(2-(2-(2-isopropylphenyl)-4-(3-methoxy-4-(pyrrolidin-1-ylmethyl)benzyl)piperazin-1-yl)-7-azaspiro[3.5]non-7-yl)benzamide]: the IC50 in assay [1] was over 500 nM; in assay [2], under 10 nM; in assay [3] it was 0.0005 to 0.001 µM; in assay [4], under 0.01 µM; in assay [5] (setting [6]), under 0.01 µM.

On to `CNCc1cc(CN2CCN(C3CC4(CCN(c5cc(Oc6cnc7[nH]ccc7c6)c(C(=O)NS(=O)(=O)c6ccc(NCC7(F)CCOCC7)c([N+](=O)[O-])c6)cc5F)CC4)C3)[C@H](c3ccccc3C(C)C)C2)ccc1OC` [compound 249, (R)-2-((1H-pyrrolo[2,3-b]pyrid-5-yl)oxy)-5-fluoro-N-((4-(((4-fluorotetrahydro-2H-pyran-4-yl)methyl)amino)-3-nitrophenyl)sulfonyl)-4-(2-(2-(2-isopropylphenyl)-4-(4-methoxy-3-((methylamino)methyl)benzyl)piperazin-1-yl)-7-azaspiro[3.5]non-7-yl)benzamide], for which the IC50 in assay [1] is over 500 nM; in assay [2], under 10 nM; in assay [3], 0.0005 to 0.001 µM; in assay [4] it was under 0.01 µM; in assay [5] (setting [6]), under 0.01 µM.

In the case of `COc1ccc(CN2CCN(C3CC4(CCN(c5cc(Oc6cnc7[nH]ccc7c6)c(C(=O)NS(=O)(=O)c6ccc(NCC7(F)CCOCC7)c([N+](=O)[O-])c6)cc5F)CC4)C3)[C@H](c3ccccc3C(C)C)C2)cc1CN(C)C` [compound 250, (R)-2-((1H-pyrrolo[2,3-b]pyrid-5-yl)oxy)-4-(2-(4-(3-((dimethylamino)methyl)-4-methoxybenzyl)-2-(2-isopropylphenyl)piperazin-1-yl)-7-azaspiro[3.5]non-7-yl)-5-fluoro-N-((4-(((4-fluorotetrahydro-2H-pyran-4-yl)methyl)amino)-3-nitrophenyl)sulfonyl)benzamide], the IC50 was over 500 nM in assay [1]; under 10 nM in assay [2]; 0.0005 to 0.001 µM in assay [3]; under 0.01 µM in assay [4]; under 0.01 µM in assay [5] (setting [6]).

For the compound `COc1ccc(CN2CCN(C3CC4(CCN(c5cc(Oc6cnc7[nH]ccc7c6)c(C(=O)NS(=O)(=O)c6ccc(NCC7(F)CCOCC7)c([N+](=O)[O-])c6)cc5F)CC4)C3)[C@H](c3ccccc3C(C)C)C2)cc1CN1CCCC1` [compound 251, (R)-2-((1H-pyrrolo[2,3-b]pyrid-5-yl)oxy)-5-fluoro-N-((4-(((4-fluorotetrahydro-2H-pyran-4-yl)methyl)amino)-3-nitrophenyl)sulfonyl)-4-(2-(2-(2-isopropylphenyl)-4-(4-methoxy-3-(pyrrolidin-1-ylmethyl)benzyl)piperazin-1-yl)-7-azaspiro[3.5]non-7-yl)benzamide], the IC50 in assay [1] is over 500 nM; in assay [2], under 10 nM; in assay [3], 0.0005 to 0.001 µM; in assay [4], under 0.01 µM; in assay [5] (setting [6]), under 0.01 µM.

As to `COc1ccc(CN2CCN(C3CC4(CCN(c5cc(Oc6cnc7[nH]cc(F)c7c6)c(C(=O)NS(=O)(=O)c6ccc(NCC7(F)CCOCC7)c([N+](=O)[O-])c6)cc5F)CC4)C3)[C@H](c3ccccc3C(C)C)C2)cc1OC` [compound 253, (R)-4-(2-(4-(3,4-dimethoxybenzyl)-2-(2-isopropylphenyl)piperazin-1-yl)-7-azaspiro[3.5]non-7-yl)-5-fluoro-2-((3-fluoro-1H-pyrrolo[2,3-b]pyrid-5-yl)oxy)-N-((4-(((4-fluorotetrahydro-2H-pyran-4-yl)methyl)amino)-3-nitrophenyl)sulfonyl)benzamide], the IC50 in assay [1] is over 500 nM; in assay [2], under 10 nM; in assay [3] it was 0.0005 to 0.001 µM; in assay [4] it was under 0.01 µM; in assay [5], under 0.01 µM.

As for `COc1ccc(CN2CCN(C3CC4(CCN(c5cc(Oc6cnc7[nH]cc(F)c7c6)c(C(=O)NS(=O)(=O)c6ccc(NCC7(F)CCOCC7)c([N+](=O)[O-])c6)cc5F)CC4)C3)[C@H](c3ccccc3C(C)C)C2)cn1` [compound 254, (R)-5-fluoro-2-((3-fluoro-1H-pyrrolo[2,3-b]pyrid-5-yl)oxy)-N-((4-(((4-fluorotetrahydro-2H-pyran-4-yl)methyl)amino)-3-nitrophenyl)sulfonyl)-4-(2-(2-(2-isopropylphenyl)-4-((6-methoxypyrid-3-yl)methyl)piperazin-1-yl)-7-azaspiro[3.5]non-7-yl)benzamide], the IC50 was over 500 nM in assay [1]; under 10 nM in assay [2]; 0.0005 to 0.001 µM in assay [3]; under 0.01 µM in assay [4]; under 0.01 µM in assay [5] (setting [6]).
